Here are results for one compound from patent US11702402B2, “Small molecules that block proteasome-associated ubiquitin receptor RPN13 function and uses thereof” (DANA-FARBER CANCER INSTITUTE, INC., priority 2018, dated 2023).

Series [1] relates to INA6 MM cells. Kind of series: INA6 cell viability. It is filed as cell-based, Human. The note with it: IL-6-dependent INA6; 48 hours. From the text: (§1) The IC50 of WL40 for cell lines is shown.
Series [2] deals with T1, RPN13 (Homo sapiens, UniProt Q16186). Kind of series: Rpn13 flow cytometry in MM.1S cells. In kind it is cell-based. Set-up: endogenous in cells; host or cells: MM.1S; MM.1S-CRBN KO; RPMI-8226; ANBL6.BR. The note with it: WL40 (400 nM) 16 hours, versus DMSO or RA190 (500 nM). How it is done:
FIGS. 19A-19I show the exemplary design and characterization of exemplary Rpn13 degrader WL40. […] WL40 was created by linking the Rpn13 inhibitor RA190 to the IMiD thalidomide as a ligand for the CRBN E3 ligase via a PEG linker. […] FIG. 19C is a schematic cartoon for the novel AlphaScreen assay to measure the binding activity of inhibitor with RPN13 proteins. […] FIG. 19E depicts immunoblot analysis of multiple myeloma 1S (MM.1S) cells, which were treated with WL40 or RA190 at the indicated concentrations and time periods; protein lysates were subjected to the immunoblot analysis using anti-Rpn13 or anti-tubulin Abs. FIG. 19F depicts flow cytometry analysis of MM.1S cells, which were treated with DMSO control, WL40 (400 nM), or RA190 (500 nM) for 16 hours; cells were then washed and stained with Rpn13 Ab conjugated with AlexaFluor-647, followed by the flow cytometry analysis. […] Data was quantified using FACS Diva (BD Biosciences, USA) and FlowJo (FlowJo LLC, USA). […]
Next, it was examined whether WL40 decreases cellular Rpn13 levels in MM cells. MM.1S cells were treated with various concentrations of WL40 (20 0 nM, 400 nM, or 800 nM) for 4 hours, 8 hours, and 16 hours; protein lysates were then analyzed for Rpn13 levels using immunoblot analysis. […] To further corroborate the findings, MM.1S cells were treated with WL40, and then analyzed intracellular alterations in Rpn13 using flow cytometry.

Series [3] concerns normal PBMCs. Kind of series: Viability of normal PBMCs. In kind it is cell-based, Human. The conditions noted are these: 48 hours. How it is done: FIGS. 5A and 5B show PBMCs from normal healthy donor treated with WL40 and WL44 at the indicated concentrations for 48 hours. […]
as §1

The target in series [4] is T1, RPN13. Kind of series: Rpn13 immunoblot in MM.1S-CRBN KO cells. It is filed as cell-based. The note with it: 400 nM, 16 hours, versus DMSO. Set-up: endogenous in cells; host or cells: MM.1S; MM.1S-CRBN KO; RPMI-8226; ANBL6.BR. How it is done: FIGS. 19A-19I show the exemplary design and characterization of exemplary Rpn13 degrader WL40. […] WL40 was created by linking the Rpn13 inhibitor RA190 to the IMiD thalidomide as a ligand for the CRBN E3 ligase via a PEG linker. […] FIG. 19C is a schematic cartoon for the novel AlphaScreen assay to measure the binding activity of inhibitor with RPN13 proteins. […] FIG. 19E depicts immunoblot analysis of multiple myeloma 1S (MM.1S) cells, which were treated with WL40 or RA190 at the indicated concentrations and time periods; protein lysates were subjected to the immunoblot analysis using anti-Rpn13 or anti-tubulin Abs. FIG. 19F depicts flow cytometry analysis of MM.1S cells, which were treated with DMSO control, WL40 (400 nM), or RA190 (500 nM) for 16 hours; cells were then washed and stained with Rpn13 Ab conjugated with AlexaFluor-647, followed by the flow cytometry analysis. Isotype Ab conjugated to AlexaFluor-647 was used as control for non-specific binding. Data was quantified using FACS Diva (BD Biosciences, USA) and FlowJo (FlowJo LLC, USA). […]
To confirm that CRBN presence is a prerequisite for the function of WL40 in cells, CRBN-knockout (KO) MM.1S cells^27, 38 were utilized, and the effect of WL40 on Rpn13 degradation was examined. […] GFPu-1 cells were treated with WL40, and GFP levels were then analyzed using immunoblotting. […]

T1 sequence (Q16186 whole entry): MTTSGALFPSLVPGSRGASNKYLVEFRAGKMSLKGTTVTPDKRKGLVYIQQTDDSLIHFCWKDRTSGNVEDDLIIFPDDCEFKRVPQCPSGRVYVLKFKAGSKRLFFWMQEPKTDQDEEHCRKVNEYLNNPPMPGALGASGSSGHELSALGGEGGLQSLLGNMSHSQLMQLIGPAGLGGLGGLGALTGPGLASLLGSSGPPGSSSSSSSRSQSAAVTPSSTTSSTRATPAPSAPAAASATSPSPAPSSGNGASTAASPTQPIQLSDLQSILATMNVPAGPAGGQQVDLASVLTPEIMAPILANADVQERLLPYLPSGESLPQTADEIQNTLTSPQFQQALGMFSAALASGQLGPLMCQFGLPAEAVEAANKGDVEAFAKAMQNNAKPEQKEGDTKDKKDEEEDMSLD

Turning to `O=C1CCC(N2C(=O)c3cccc(NCCOCCOCCOCCC(=O)N[C@@H](Cc4ccccc4)C(=O)N4C/C(=C\c5ccc(Cl)c(Cl)c5)C(=O)/C(=C/c5ccc(Cl)c(Cl)c5)C4)c3C2=O)C(=O)N1` (some centres unmarked) [WL40], the “cytotoxic activity (cell viability)” value in series [1] was “cytotoxic activity”. Besides, the “Rpn13 expression (flow cytometry)” value in series [2] is reported as “significant reduction in Rpn13 expression”. For the same compound, the “viability of normal PBMCs” value in series [3] (at the IC50, Wst-1) is on record as “do not significantly affect the viability”; in series [3] (at the IC50 for MM cells, CellTiter-Glo), “does not affect viability of normal PBMCs”. Moreover, the “Rpn13 levels (immunoblot)” value in series [4] is reported as “no decrease in Rpn13 levels”.
